Experimental data from US20240277698A1, “METHODS OF USING ALDOSTERONE SYNTHASE INHIBITORS” (CINCOR PHARMA, INC., priority 2021, published 2024).

Experiments:
aldosterone synthase = molecular target: T1, aldosterone synthase (Homo sapiens, UniProt P19099); assay: SAD study: plasma and urine aldosterone and precursors (Cortrosyn challenge, standing, normal and low salt diet); format: in vivo; conditions: normal salt diet, low salt diet conditions
T1 construct: synthesized in the adrenal cortex by aldosterone synthase; endogenous in cells; host or cells: adrenal cortex of healthy human subjects (in vivo, oral dosing)
T1 sequence (P19099 25-503): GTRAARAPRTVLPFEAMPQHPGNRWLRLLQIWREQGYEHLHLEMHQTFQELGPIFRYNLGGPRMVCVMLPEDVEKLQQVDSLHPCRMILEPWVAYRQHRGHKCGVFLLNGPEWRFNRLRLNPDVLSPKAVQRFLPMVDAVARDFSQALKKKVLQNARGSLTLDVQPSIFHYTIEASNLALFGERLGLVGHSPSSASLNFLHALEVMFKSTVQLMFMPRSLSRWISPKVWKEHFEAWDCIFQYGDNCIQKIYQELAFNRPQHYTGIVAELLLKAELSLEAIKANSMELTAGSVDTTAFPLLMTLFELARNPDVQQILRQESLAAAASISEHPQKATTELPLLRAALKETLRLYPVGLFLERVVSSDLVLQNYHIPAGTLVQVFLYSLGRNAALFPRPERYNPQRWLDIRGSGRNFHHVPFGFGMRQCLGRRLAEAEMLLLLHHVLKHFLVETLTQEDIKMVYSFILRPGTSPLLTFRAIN
Protocol: Single doses of (R)-compound 1 reduced plasma and urine aldosterone levels by approximately 85% to 90% in a dose-dependent manner, consistently reaching a maximum effect at a dose of 10 mg (R)-compound 1 under the different conditions tested (Cortrosyn® challenge, standing, normal salt diet, and low salt diet conditions). No change in plasma cortisol levels was apparent across the full dose range tested (0 to 360 mg (R)-compound 1).
A maximum effect on aldosterone reduction was consistently achieved at a dose of 10 mg under the different conditions tested in healthy subjects (Cortrosyn® challenge, standing, normal salt diet, and low salt diet conditions). No change in plasma cortisol levels after the Cortrosyn challenge was apparent across the full dose range tested (0 to 360 mg of (R)-compound 1).
(R)-compound 1 induced a dose-dependent blunting of plasma aldosterone levels as compared to Day −1 baseline and as compared to placebo, with a maximum effect achieved at the 10 mg dose level (approximate 85% to 90% decrease as compared to Day −1). This effect was observed both on the post-Cortrosyn challenge readout (time interval 0 to 4 hours), and on the standing aldosterone peak (time interval 4 to 12 hours) (See FIG. 10).
Notes: Plasma aldosterone levels that were Below limit of quantification were set to the lower limit of quantitation value (5 pg/mL) to allow further calculation. […]

[1] = Renal impairment study, single 10 mg dose: safety; format: in vivo
From the text: One subject with end stage disease experienced an unrelated SAE of metabolic encephalopathy and a moderate unrelated adverse event (AE) of tremor. One control subject experienced a mild AE of diarrhea, which was considered to be related to study drug by the Investigator. […] It is not necessary to dose adjust (R)-compound 1 for patients with renal impairment.
Overall, there were no deaths, 1 (3.0%) subject experienced an SAE, and no subjects discontinued due to a TEAE. Overall, 2 (6.1%) subjects experienced a total of 3 TEAEs: 1 (10.0%) subject in the control group experienced a TEAE of mild diarrhea following administration of (R)-compound 1 that was considered related to the study drug; no subjects experienced a TEAE in the (R)-moderate to severe renal impairment group; and 1 (8.3%) subject in the kidney failure group experienced 2 TEAEs of moderate tremor and severe metabolic encephalopathy (recorded as an SAE) following administration of (R)-compound 1 that were considered not related to the study drug. The SAE was thought to be secondary to the concomitant medications. As such, there was no apparent increase in incidence or severity of AEs with decreased renal function. There were no AEs, trends, or clinically meaningful changes in laboratory parameters. There were no AEs or clinically significant changes observed in vital signs, physical examinations, or 12-lead ECGs.

SMILES: CCC(=O)N[C@@H]1CCCc2c(-c3ccc4c(c3)CCC(=O)N4C)cncc21 [(R)-Compound 1, (R)—N-(4-(1-methyl-2-oxo-1,2,3,4-tetrahydroquinolin-6-yl)-5,6,7,8-tetrahydroisoquinolin-8-yl)propionamide]
- dose at which maximum effect on aldosterone reduction reached (aldosterone synthase): 10 mg
- subjects experiencing a TEAE (mild diarrhea, related) ([1]; control group): 1 (10.0%)
- subjects experiencing TEAEs (moderate tremor, severe metabolic encephalopathy, not related) ([1]; kidney failure group): 1 (8.3%)
- subjects experiencing a TEAE ([1]; moderate to severe renal impairment group): no subjects
- subjects experiencing TEAEs ([1]; overall, single 10 mg dose): 2 (6.1%)
- subjects experiencing an SAE ([1]; overall, single 10 mg dose): 1 (3.0%)
- tolerability ([1]; single 10 mg dose, varying degrees of renal function): well tolerated
